From PMC9090415, “Discovery of small molecule inhibitors of Plasmodium falciparum apicoplast DNA polymerase” (Journal of Enzyme Inhibition and Medicinal Chemistry, 2022)

Molecular target: T1, bacteriophage T4 DNA polymerase (Enterobacteria phage T4, UniProt P04415)
T1 construct: made in house
T1 sequence (P04415 1-898): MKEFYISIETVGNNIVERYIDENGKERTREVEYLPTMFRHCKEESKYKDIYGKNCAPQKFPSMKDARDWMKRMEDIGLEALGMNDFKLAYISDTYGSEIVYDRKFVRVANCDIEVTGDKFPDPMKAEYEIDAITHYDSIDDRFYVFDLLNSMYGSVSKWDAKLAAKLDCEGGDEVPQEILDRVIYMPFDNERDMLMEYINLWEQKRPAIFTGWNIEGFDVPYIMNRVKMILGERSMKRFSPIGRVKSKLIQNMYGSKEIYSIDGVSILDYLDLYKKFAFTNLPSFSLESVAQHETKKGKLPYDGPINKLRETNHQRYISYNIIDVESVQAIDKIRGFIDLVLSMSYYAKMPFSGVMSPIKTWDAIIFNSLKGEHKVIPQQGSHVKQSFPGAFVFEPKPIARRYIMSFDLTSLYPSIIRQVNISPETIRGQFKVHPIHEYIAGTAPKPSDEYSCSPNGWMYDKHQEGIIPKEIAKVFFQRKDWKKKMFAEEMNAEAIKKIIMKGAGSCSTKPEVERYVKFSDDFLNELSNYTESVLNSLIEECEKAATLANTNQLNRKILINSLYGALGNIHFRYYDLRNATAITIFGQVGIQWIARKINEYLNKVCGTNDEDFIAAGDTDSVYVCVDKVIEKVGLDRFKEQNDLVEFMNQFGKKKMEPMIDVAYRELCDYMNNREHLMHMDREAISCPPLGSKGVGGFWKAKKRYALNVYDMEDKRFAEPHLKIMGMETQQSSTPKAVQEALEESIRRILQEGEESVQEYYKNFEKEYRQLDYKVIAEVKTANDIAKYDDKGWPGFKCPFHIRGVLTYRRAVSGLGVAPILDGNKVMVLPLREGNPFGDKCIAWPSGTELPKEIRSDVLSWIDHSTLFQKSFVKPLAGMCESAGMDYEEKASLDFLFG
Experiment: Counter-screen against bacteriophage T4 DNA polymerase
Assay type: biochemical
Details: for % inhibition T4 10' 2.5 / % inhibition T4 10' 5 / % inhibition T4 10' 10 / % inhibition T4 10' 20 / % inhibition T4 10' 40 / % inhibition T4 10' 80: read at 10'; for % inhibition T4 70' 2.5 / % inhibition T4 70' 5 / % inhibition T4 70' 10 / % inhibition T4 70' 20 / % inhibition T4 70' 40 / % inhibition T4 70' 80: read at 70'; for % inhibition T4 130' 2.5 / % inhibition T4 130' 5 / % inhibition T4 130' 10 / % inhibition T4 130' 20 / % inhibition T4 130' 40 / % inhibition T4 130' 80: read at 130'; for % inhibition T4 40' 2.5 / % inhibition T4 40' 5 / % inhibition T4 40' 10 / % inhibition T4 40' 20 / % inhibition T4 40' 40 / % inhibition T4 40' 80: read at 40'; for % inhibition T4 90' 2.5 / % inhibition T4 90' 5 / % inhibition T4 90' 10 / % inhibition T4 90' 20 / % inhibition T4 90' 40 / % inhibition T4 90' 80: read at 90'; for % inhibition T4 180' 2.5 / % inhibition T4 180' 5 / % inhibition T4 180' 10 / % inhibition T4 180' 20 / % inhibition T4 180' 40 / % inhibition T4 180' 80: read at 180'
Method: Codon-optimized, exonuclease-deficient Pf-apPOL was overexpressed in E. coli BL21 (DE3) and purified as described. The protein was dialysed against two, 1-liter changes of 20 mM Tris-HCl (pH 8.0), 400 mM NaCl, and 20% glycerol. Plasmodium bergei and Babesia bovis apPOLs (Pb-apPOL and Bb-apPOL, respectively) were codon-optimized, expressed, and purified as for Pf-apPOL[15]. Bacteriophage T4 DNA polymerase was purified as described. The DNA oligonucleotides used to make the high-throughput substrate were obtained from Integrated DNA Technologies. Deoxynucleotides were purchased from Strategene. All other materials came from Fisher Scientific.
Each compound was tested in a dose-response format to determine IC50 values. […] T4 DNA polymerase can be produced in large quantities, and is in the same family (B-family) as the replicative human DNA polymerases (α, δ, and ε)[20].

## O=C1C(=Cc2ccccc2O)Oc2ccc(O)cc21 [KU0196475]
DRC-2, concentration 80
  % inhibition T4 10': 34%
DRC-2, concentration 2.5
  % inhibition T4 40': 10%
DRC-2, concentration 5
  % inhibition T4 40': 10%
DRC-2, concentration 10
  % inhibition T4 40': 21%
  % inhibition T4 90': 21%
DRC-2, concentration 40
  % inhibition T4 90': 34%

## Cc1ccc2c(C(=O)NCCc3cccnc3)cc(NC(=O)C(C)C)cc2n1 [KU0206096]
DRC-2, concentration 5
  % inhibition T4 10': 8%
DRC-2, concentration 10
  % inhibition T4 10': 30%
  % inhibition T4 90': 28%
DRC-2, concentration 80
  % inhibition T4 10': 35%
  % inhibition T4 180': 34%
DRC-2, concentration 2.5
  % inhibition T4 40': 8%
DRC-2, concentration 20
  % inhibition T4 40': 35%
  % inhibition T4 90': 30%
DRC-2, concentration 40
  % inhibition T4 90': 34%
  % inhibition T4 180': 28%

## CCC(C)NC(=O)c1cc(NC(C)=O)cc2nc(C)ccc12 (stereo not shown) [KU0206314]
DRC-2, concentration 80
  % inhibition T4 10': 42%
  % inhibition T4 90': 42%
DRC-2, concentration 2.5
  % inhibition T4 90': 13%
DRC-2, concentration 5
  % inhibition T4 90': 13%

## Cc1nc(C)c2c(n1)N(CC1CCCCC1)C(=O)CC2 [KU0218606]
DRC-1, concentration 2.5
  % inhibition T4 10' 2.5: -4.605%
  % inhibition T4 70' 2.5: -6.824%
  % inhibition T4 130' 2.5: -8.748%
DRC-1, concentration 5
  % inhibition T4 10' 5: -3.989%
  % inhibition T4 70' 5: -8.391%
  % inhibition T4 130' 5: -10.3586%
DRC-1, concentration 10
  % inhibition T4 10' 10: -2.764%
  % inhibition T4 70' 10: -4.959%
  % inhibition T4 130' 10: -7.013%
DRC-1, concentration 20
  % inhibition T4 10' 20: -3.758%
  % inhibition T4 70' 20: -8.03%
  % inhibition T4 130' 20: -9.978%
DRC-1, concentration 40
  % inhibition T4 10' 40: -2.983%
  % inhibition T4 70' 40: -3.675%
  % inhibition T4 130' 40: -5.652%
DRC-1, concentration 80
  % inhibition T4 10' 80: -2.366%
  % inhibition T4 70' 80: -5.307%
  % inhibition T4 130' 80: -8.474%
DRC-2, concentration 2.5
  % inhibition T4 10' 2.5: 4%
  % inhibition T4 40' 2.5: 4%
  % inhibition T4 90' 2.5: 4%
  % inhibition T4 180' 2.5: -0.169%
DRC-2, concentration 5
  % inhibition T4 10' 5: 4.39%
  % inhibition T4 40' 5: 4.39%
  % inhibition T4 90' 5: 5%
  % inhibition T4 180' 5: 0.674%
DRC-2, concentration 10
  % inhibition T4 10' 10: 6%
  % inhibition T4 40' 10: 6%
  % inhibition T4 90' 10: 7%
  % inhibition T4 180' 10: 3%
DRC-2, concentration 20
  % inhibition T4 10' 20: 5.27%
  % inhibition T4 40' 20: 5.27%
  % inhibition T4 90' 20: 7%
  % inhibition T4 180' 20: 2%
DRC-2, concentration 40
  % inhibition T4 10' 40: 12%
  % inhibition T4 40' 40: 12%
  % inhibition T4 90' 40: 11%
  % inhibition T4 180' 40: 8%
DRC-2, concentration 80
  % inhibition T4 10' 80: 12%
  % inhibition T4 40' 80: 12%
  % inhibition T4 90' 80: 11%
  % inhibition T4 180' 80: 8%

## Cl.NC(CO)C(=O)NNCc1ccc(O)c(O)c1O (stereo not shown) [KU0260493]
DRC-2, concentration 2.5
  % inhibition T4 10': -17%
  % inhibition T4 90': -11%
DRC-2, concentration 10
  % inhibition T4 10': -11%
DRC-2, concentration 5
  % inhibition T4 180': -17%

## Cc1nc(/N=N/c2ccc(C(=O)[O-])cc2)c(COP(=O)([O-])[O-])c(C=O)c1O.[Na+].[Na+].[Na+] [KU0261395]
DRC-2, concentration 2.5
  % inhibition T4 10': -16%
  % inhibition T4 40': -20%
  % inhibition T4 90': -20%
DRC-2, concentration 5
  % inhibition T4 10': -9%
  % inhibition T4 40': -16%
  % inhibition T4 90': -18%
DRC-2, concentration 40
  % inhibition T4 10': -10%
  % inhibition T4 90': -11%
  % inhibition T4 180': -11%
DRC-2, concentration 80
  % inhibition T4 10': -18%
  % inhibition T4 40': -18%
  % inhibition T4 180': -10%
DRC-2, concentration 10
  % inhibition T4 90': -9%
DRC-2, concentration 20
  % inhibition T4 180': -9%

## CN(C)S(=O)(=O)Oc1ccc(-c2noc(-c3ccc(Oc4cc(Cl)cc(Cl)c4)o3)n2)cc1 [KU0263859]
DRC-2, concentration 5
  % inhibition T4 10': 17%
  % inhibition T4 40': 17%
DRC-2, concentration 10
  % inhibition T4 10': 35%
DRC-2, concentration 20
  % inhibition T4 10': 35%
  % inhibition T4 40': 38%
  % inhibition T4 90': 35%
DRC-2, concentration 40
  % inhibition T4 40': 43%
  % inhibition T4 180': 38%
DRC-2, concentration 80
  % inhibition T4 40': 43%
  % inhibition T4 180': 43%

## N#CC(=NNc1cc(C(F)(F)F)cc(C(F)(F)F)c1)C(=O)c1ccco1 [KU0264276]
DRC-2, concentration 2.5
  % inhibition T4 10': 9%
  % inhibition T4 40': 7%
DRC-2, concentration 5
  % inhibition T4 10': 9%
  % inhibition T4 40': 9%
  % inhibition T4 90': 7%
DRC-2, concentration 20
  % inhibition T4 10': 13%
  % inhibition T4 40': 13%
DRC-2, concentration 40
  % inhibition T4 10': 19%
  % inhibition T4 40': 19%
  % inhibition T4 180': 13%
DRC-2, concentration 10
  % inhibition T4 40': 13%
DRC-2, concentration 80
  % inhibition T4 40': 19%
  % inhibition T4 180': 19%

## Cc1cccc(-c2noc(C(=O)NNC(=O)C(Cl)(Cl)Cl)n2)c1 [KU0266208]
DRC-1, concentration 2.5
  % inhibition T4 10' 2.5: 1.001%
  % inhibition T4 70' 2.5: 1.555%
  % inhibition T4 130' 2.5: -1.03%
DRC-1, concentration 5
  % inhibition T4 10' 5: -2.3946%
  % inhibition T4 70' 5: -1.004%
  % inhibition T4 130' 5: -3.982%
DRC-1, concentration 10
  % inhibition T4 10' 10: 2.959%
  % inhibition T4 70' 10: 1.596%
  % inhibition T4 130' 10: -1.107%
DRC-1, concentration 20
  % inhibition T4 10' 20: 3.222%
  % inhibition T4 70' 20: 0.3208%
  % inhibition T4 130' 20: -3.27%
DRC-1, concentration 40
  % inhibition T4 10' 40: 8.397%
  % inhibition T4 70' 40: 4.827%
  % inhibition T4 130' 40: 2.252%
DRC-1, concentration 80
  % inhibition T4 10' 80: 7.879%
  % inhibition T4 70' 80: 4.906%
  % inhibition T4 130' 80: 3.008%
DRC-2, concentration 2.5
  % inhibition T4 10' 2.5: 7%
  % inhibition T4 40' 2.5: 7%
  % inhibition T4 90' 2.5: 7%
  % inhibition T4 180' 2.5: 1.78%
DRC-2, concentration 5
  % inhibition T4 10' 5: -1.26%
  % inhibition T4 40' 5: -1.26%
  % inhibition T4 90' 5: -1.21%
  % inhibition T4 180' 5: -5.37%
DRC-2, concentration 10
  % inhibition T4 10' 10: -5%
  % inhibition T4 40' 10: -5%
  % inhibition T4 90' 10: -5%
  % inhibition T4 180' 10: -9%
DRC-2, concentration 20
  % inhibition T4 10' 20: -8%
  % inhibition T4 40' 20: -8%
  % inhibition T4 90' 20: -8%
  % inhibition T4 180' 20: -11%
DRC-2, concentration 40
  % inhibition T4 10' 40: -12%
  % inhibition T4 40' 40: -12%
  % inhibition T4 90' 40: -10%
  % inhibition T4 180' 40: -9%
DRC-2, concentration 80
  % inhibition T4 10' 80: -4.34%
  % inhibition T4 40' 80: -4.34%
  % inhibition T4 90' 80: -1.44%
  % inhibition T4 180' 80: 0.715%
